These results are taken from US20220160686A1, “MACROCYCLIC AZOLOPYRIDINE DERIVATIVES AS EED AND PRC2 MODULATORS” (Fulcrum Therapeutics, Inc., priority 2019, published 2022).

The subject of the assay is human P-glycoprotein HEK cells (HEK-P-gp). In words: H3K27me3 immunocytochemistry assay in P-gp expressing HEK293T cells, with or without elacridar. The note with it: Homo sapiens, 4 days compound treatment. It is filed as cell-based. Put shortly:
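HEK293T stably expressing human ABCB1 (vinblastine-selected), 1000 cells/well, treated with serially diluted compound for 4 days at 37° C, with or without 250 nM elacridar. Fixed cells stained with anti-H3K27me3 plus Alexa 488 secondary and Hoechst; imaged at 10×, nuclei identified by Hoechst.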

pIC50: −log10 of the molar value. Read-outs that look alike come from different tables or passages of the source. Bounds are passed on as bounds.

As for `Cc1cn(-c2cc3c(n4cnnc24)NCc2c(F)ccc4c2[C@@H](CO4)CO3)cn1` [Compound 15, (S)-12-fluoro-4-(4-methyl-1H-imidazol-1-yl)-7a,8,13,14-tetrahydro-7H-[1,2,4]triazolo[4′,3′:1,6]pyrido[3,2-b]benzofuro[4,3-fg][1,4]oxazonine], the pIC50 is 7.30 to 7.60 (HEK293, 96 h, without elacridar, read-out: IC50, inhibitory activity on human P-glycoprotein HEK cells (HEK-P-gp)) and more than 7.60 (HEK293, with 250 nM elacridar, read-out: IC50, inhibitory activity on human P-glycoprotein HEK cells (HEK-P-gp) pretreated with elacridar).
